{"source": "patent EP1954843B1", "about": "“LEACHING PROCESS IN THE PRESENCE OF HY[…] FOR THE RECOVERY OF A VALUE METAL FROM AN ORE” (Anglo Operations Limited, priority 2005, dated 2007)", "origin": "cited, not measured here", "conditions": "at 80°C", "data": [{"smiles": "[Cl-].[Cl-].[Zn+2]", "note": "[zinc chloride]", "values": [{"measurement": "soluble to the extent of", "value": "ca. 84.4 g/100g saturated solution"}]}]}
